Results from US12441763B2, “Hangtaimycin derivatives and their preparation methods and application” (WUHAN UNIVERSITY, priority 2022, dated 2025).

Tests used:
HepG2 cells = test: Cellular assay for hepatoprotective activity, CCl4-induced liver injury cell model; assay type: cell-based; conditions: compared with the CCl4 group; HepG2 cell homogenates
Experimental: HepG2 cells were seeded into 24-well plates and kept at 37° C. in 5% CO2 in order to achieve 80% fusion. To evaluate the effects of HTMA, HTMB, and HTMP on aspartate aminotransferase (AST) and alanine aminotransferase (ALT) activity, and compare the results with those of Silymarin (positive control) (FIG. 26), a cellular assay for hepatoprotective activity was carried out using a CCl4-induced liver injury cell model. The cells were treated with the compounds followed by ultrasound disruption and cell homogenization to prepare the cell homogenates for analysis.

[1] = tested on: carrageenan-induced paw inflammation; test: Anti-inflammatory effect in inflammatory model induced by carrageenan (paw); assay type: in vivo, Kunming mice; conditions: 10 mg/mL, 10 μL subcutaneous into right hind paw; 4 hours after carrageenan injection; vs carrageenan+solvent group; P<0.05
Experimental: Male Kunming mice weighing 18˜22 g were adaptively reared for 1 day, and then randomly divided into […] (5˜6 mice per group): the saline+solvent group, the saline+HTM group, the saline+HTMP group, the saline+HTMA group, the saline+HTMB group, the saline+rapamycin (250 nM) group, the carrageenan+solvent group, the carrageenan+HTM group, the carrageenan+HTMP group, the carrageenan+HTMA group, the carrageenan+HTMB group, and the carrageenan+rapamycin (250 nM) group. Where doses used for HTM, HTMP, HTMA, and HTMB were set at 1, 3, and 10 mg/mL, and their solutions all contained 5% DMSO. Experiments were designed based on previous studies (Zhang et al., 2018). Carrageenan was used to induce paw inflammation, and the experimental procedure was as follows:
(1) The thickness of the right hind foot of mice was measured with a vernier caliper before the experiment, and the measurement site was marked.
(2) The experimental group was then subcutaneously injected into the right hind paw with 10 μL of different concentrations of compound solutions. The control group was injected with 10 μL saline into the right hind paw.
(3) After administration, the carrageenan group was injected subcutaneously with 30 μL of 1% carrageenan solution into the right hind paw, and the other groups were injected with an equal volume of saline. The thickness of the right hind foot of each mouse was measured at the same site every 1 hour for the following 4 hours to observe the effect of the compounds on the change in foot thickness.

[2] = Antioxidant activity, DPPH free radical scavenging; assay type: biochemical; conditions: 1~50 μg/mL, 0.1 mM DPPH, absorbance at 517 nm
Experimental: In this experiment, a 0.1 mM DPPH solution was prepared with ethanol, and each sample solution/dispersion was separately mixed with the DPPH solution in order to dilute it into a reaction product with a concentration gradient of 1˜50 μg/mL to evaluate the concentration-dependent antioxidant potential. The reaction product was measured for its absorbance (AS) at 517 nm using an ultraviolet-visible spectrophotometer, and its antioxidant activity was measured using DPPH removal as an indicator. The percentage of DPPH free radical scavenging is calculated by the following formula: […]
AS is the absorbance of the sample and A0 is the absorbance of the control (only DPPH solution).

bladder cancer = test: Antitumor activity, MTT cell viability, bladder cancer; assay type: cell-based; conditions: 50 μg/mL, 24 hours, P<0.01
Experimental: (§1) In a 96-well microplate, 100 μL of culture medium was put in each well and inoculate four cell strains with a fusion degree of 80% at a density of 8×10^3 cells. Cells were grown at 37° C., CO2 (5%) and air (95%). Each 96-well plate was placed with a concentration gradient of 0˜100 μg/mL of test compounds HTM, HTMA, HTMB, and HTMP. After 24 hours of incubation, the medium was removed, and 0.5 mg/mL MTT solution was added to each medium with cells and continue to incubate the cells for 4 hours at 37° C. Then 100 μL of DMSO was added to dissolve formazan crystals. Finally, absorbance was measured at 570 nm using a microplate reader (Bioteck EON, USA). The viability of the cells was calculated as the percentage of cell viability compared to vehicle control-treated cells, which were arbitrarily assigned as 100% viability. Each independent experiment was repeated five times. (*P<0.05, **P<0.01, ***P<0.001)

renal cancer = test: Antitumor activity, MTT cell viability, renal cancer; assay type: cell-based; conditions: 50 μg/mL, 24 hours, P<0.01
Experimental: as §1

liver cancer = test: Antitumor activity, MTT cell viability, liver cancer; assay type: cell-based; conditions: 50 μg/mL, 24 hours, P<0.01
Experimental: as §1

breast cancer = test: Antitumor activity, MTT cell viability, breast cancer; assay type: cell-based; conditions: 50 μg/mL, 24 hours, P<0.01
Experimental: as §1

Deoxyhangtaimycin [HTMP]
ALT levels (HepG2 cells): significantly reduced | AST levels (HepG2 cells): significantly reduced | right hind foot thickness [1]: reduced | antioxidant capacity (DPPH free radical scavenging) [2]: have antioxidant capacity | survival rate of bladder cancer (bladder cancer): significantly inhibited | survival rate of renal cancer (renal cancer): significantly inhibited | survival rate of liver cancer (liver cancer): significantly inhibited | survival rate of breast cancer (breast cancer): significantly inhibited
